Laboratory results: publication PMC6222323, “Exploiting the Chalcone Scaffold to Develop Multifunctional Agents for Alzheimer’s Disease” (Molecules : A Journal of Synthetic Chemistry and Natural …, 2018)

Assays:
[1] = target: human recombinant AChE (hAChE) (Homo sapiens, UniProt P22303); test: biochemical; type: biochemical; details: for SI: selectivity index for AChE: calculated as IC50 hBuChE/hAChE ratio; for IC50: read-out: IC50 (µM) ± SEM hAChE
[2] = target: BuChE from human serum (hBuChE) (Homo sapiens, UniProt P06276); test: biochemical; type: biochemical; details: for IC50: read-out: IC50 (µM) ± SEM hBuChE
Sequence of BuChE from human serum (hBuChE) (P06276 29-602): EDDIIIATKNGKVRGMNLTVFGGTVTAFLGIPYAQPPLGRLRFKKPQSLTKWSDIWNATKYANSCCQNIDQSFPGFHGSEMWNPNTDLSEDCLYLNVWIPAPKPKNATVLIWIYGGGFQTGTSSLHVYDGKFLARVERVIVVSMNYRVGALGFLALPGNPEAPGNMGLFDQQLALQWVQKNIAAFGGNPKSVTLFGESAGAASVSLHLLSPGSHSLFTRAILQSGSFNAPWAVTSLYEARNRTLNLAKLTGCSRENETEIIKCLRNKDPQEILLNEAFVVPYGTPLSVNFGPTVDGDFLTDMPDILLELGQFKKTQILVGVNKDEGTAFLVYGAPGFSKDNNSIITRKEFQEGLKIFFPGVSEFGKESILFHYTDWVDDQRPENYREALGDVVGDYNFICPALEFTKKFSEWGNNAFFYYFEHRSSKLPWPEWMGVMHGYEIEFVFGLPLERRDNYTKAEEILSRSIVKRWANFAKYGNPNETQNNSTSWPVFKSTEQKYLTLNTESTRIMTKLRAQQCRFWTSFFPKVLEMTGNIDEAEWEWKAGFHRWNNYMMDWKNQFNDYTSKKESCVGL

[3] = system: SH-SY5Y cells; type: cell-based; details: 24 h treatment, 2.5–80 µM tested, MTT assay, SH-SY5Y cells (data not shown)
[4] = system: SH-SY5Y cells; test: Antioxidant activity, ROS formation induced by t-BuOOH (H2DCF-DA probe); type: cell-based; details: Homo sapiens, 1.25 µM compound for 24 h, then t-BuOOH 100 µM for 30 min, read-out: inhibition percentage in ROS formation induced by t-BuOOH
[5] = system: SH-SY5Y cells; test: Glutathione (GSH) levels (MCB probe); type: cell-based, human; details: 1.25 µM compound for 24 h, vs. control
[6] = system: SH-SY5Y cells; test: Neuroprotective activity toward Aβ1–42 oligomers, MTT formazan exocytosis assay; type: cell-based, human; details: 1.25 µM compound with OAβ1–42 10 µM for 4 h
[7] = human recombinant AChE, 20 min preincubation at 37 °C, pH 8.0, n.a. = not active, inhibition lower than 15% at the highest tested concentration
[8] = BuChE from human serum, 20 min preincubation at 37 °C, pH 8.0, n.a. = not active, inhibition lower than 15% at the highest tested concentration

Sequence of human recombinant AChE (hAChE) (P22303 32-614): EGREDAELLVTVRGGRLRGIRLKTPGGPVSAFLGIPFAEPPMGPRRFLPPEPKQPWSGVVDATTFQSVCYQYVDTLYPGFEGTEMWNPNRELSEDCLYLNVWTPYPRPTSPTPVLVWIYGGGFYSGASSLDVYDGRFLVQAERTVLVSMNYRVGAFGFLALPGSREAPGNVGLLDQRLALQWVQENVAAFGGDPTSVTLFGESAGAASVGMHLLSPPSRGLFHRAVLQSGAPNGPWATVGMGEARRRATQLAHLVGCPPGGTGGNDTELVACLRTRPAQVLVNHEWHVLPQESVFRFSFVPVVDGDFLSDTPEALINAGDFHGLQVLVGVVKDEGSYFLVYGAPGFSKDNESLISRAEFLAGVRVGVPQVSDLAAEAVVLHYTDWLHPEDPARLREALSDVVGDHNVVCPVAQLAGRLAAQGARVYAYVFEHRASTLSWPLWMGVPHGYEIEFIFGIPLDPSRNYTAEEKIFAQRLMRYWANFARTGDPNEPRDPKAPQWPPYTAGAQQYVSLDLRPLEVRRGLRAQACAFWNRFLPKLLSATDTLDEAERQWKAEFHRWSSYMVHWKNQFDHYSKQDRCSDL

Structure (SMILES)	SI: selectivity index for AChE [1]	IC50 [1, 7] [µM]	IC50 [2, 8] [µM]	also measured
CN(CCCCCCCOc1ccc(C=CC(=O)c2ccc(OCCN3CCc4ccccc4C3)cc2)cc1)Cc1ccccc1 [compound 8, 3-(4-((7-(Benzyl(methyl)amino)heptyl)oxy)phenyl)-1-(4-(2-(3,4-dihydroisoquinolin-2(1H)-yl)ethoxy)phenyl)prop-2-en-1-one]	0.23	16.5 ± 2.6	3.87 ± 0.3	
CCN(CC)CCCOc1ccc(C(=O)C=Cc2ccc(OCCCCCCCN(C)Cc3ccccc3)cc2)cc1 [compound 4, 3-(4-((7-(Benzyl(methyl)amino)heptyl)oxy)phenyl)-1-(4-(3-(diethylamino)propoxy)phenyl)-prop-2-en-1-one]	2.6	0.92 ± 0.07	2.38 ± 0.05	concentrations that did not affect neuronal viability [3]: up to 2.5 µM; inhibition at 1.25 µM [4]: 27%; effect on GSH levels [5]: significantly increased GSH levels; neuroprotective activity toward OAβ1–42 induced toxicity (neuronal viability) [6]: partially counteracted the neurotoxic effects
COc1ccc(C(=O)C=Cc2ccc(OCCCCCCCN(C)Cc3ccccc3)cc2)cc1 [compound 2, 3-(4-((7-(Benzyl(methyl)amino)heptyl)oxy)phenyl)-1-(4-methoxyphenyl)prop-2-en-1-one]	0.03	98.5 ± 8.8	2.85 ± 0.7	concentrations that did not affect neuronal viability [3]: up to 2.5 µM; inhibition at 1.25 µM [4]: 16%; effect on GSH levels [5]: decreased GSH basal levels; neuroprotective activity toward OAβ1–42 induced toxicity (neuronal viability) [6]: reinforced the neurotoxic effects
CCN(CC)CCCCOc1ccc(C(=O)CCc2ccc(OCCCCCCCN(C)Cc3ccccc3)cc2)cc1 [compound 18, 3-(4-((7-(Benzyl(methyl)amino)heptyl)oxy)phenyl)-1-(4-(4-(diethylamino)butoxy)phenyl)-propan-1-one]	5.04	2.46 ± 0.11	12.4 ± 2.4	
COc1cccc(C(=O)C=Cc2ccc(OCCCCCCCN(C)Cc3ccccc3)cc2)c1 [compound 12, 3-(4-((7-(Benzyl(methyl)amino)heptyl)oxy)phenyl)-1-(3-methoxyphenyl)prop-2-en-1-one]	0.08	105 ± 17	8.58 ± 0.35	
CCN(CC)CCOc1ccc(C(=O)CCc2ccc(OCCCCCCCN(C)Cc3ccccc3)cc2)cc1 [compound 16, 3-(4-((7-(Benzyl(methyl)amino)heptyl)oxy)phenyl)-1-(4-(2-(diethylamino)ethoxy)phenyl)-propan-1-one]	3.25	6.21 ± 0.32	20.2 ± 1.7	
CN(CCCCCCCOc1ccc(C=CC(=O)c2ccc(OCCN3CCCCC3)cc2)cc1)Cc1ccccc1 [compound 7, 3-(4-((7-(Benzyl(methyl)amino)heptyl)oxy)phenyl)-1-(4-(2-(piperidin-1-yl)ethoxy)phenyl)prop-2-en-1-one]	15.8	1.25 ± 0.06	19.7 ± 0.6	
CCN(CC)CCCOc1cccc(C(=O)C=Cc2ccc(OCCCCCCCN(C)Cc3ccccc3)cc2)c1 [compound 14, 3-(4-((7-(Benzyl(methyl)amino)heptyl)oxy)phenyl)-1-(3-(3-(diethylamino)propoxy)phenyl)-prop-2-en-1-one]	0.31	5.78 ± 0.67	1.82 ± 0.05	
CN(CCCCCCCOc1ccc(C=CC(=O)c2ccc(OCCN3CCOCC3)cc2)cc1)Cc1ccccc1 [compound 6, 3-(4-((7-(Benzyl(methyl)amino)heptyl)oxy)phenyl)-1-(4-(2-morpholinoethoxy)phenyl)prop-2-en-1-one]	0.021	511 ± 37	11 ± 0.5	fold worse hAChE inhibition than compound 7 ([1]; morpholino vs piperidine derivative): about 500 fold
CN(CCCCCCCOc1ccc(C=CC(=O)c2ccc(OCCN3CCC(n4c(=O)[nH]c5ccccc54)CC3)cc2)cc1)Cc1ccccc1 [compound 9, 1-(1-(2-(4-(3-(4-((7-(Benzyl(methyl)amino)heptyl)oxy)phenyl)acryloyl)phenoxy)ethyl)-piperidin-4-yl)-1,3-dihydro-2H-benzo[d]imidazol-2-one]	0.29	13.5 ± 2.3	3.93 ± 0.2	
CCN(CC)CCCOc1ccc(C(=O)CCc2ccc(OCCCCCCCN(C)Cc3ccccc3)cc2)cc1 [compound 17, 3-(4-((7-(Benzyl(methyl)amino)heptyl)oxy)phenyl)-1-(4-(3-(diethylamino)propoxy)phenyl)-propan-1-one]	3.04	1.66 ± 0.09	5.04 ± 0.3	concentrations that did not affect neuronal viability [3]: up to 2.5 µM; inhibition at 1.25 µM [4]: 23%; effect on GSH levels [5]: significantly increased GSH levels; neuroprotective activity toward OAβ1–42 induced toxicity (neuronal viability) [6]: No neuroprotective effect
CCN(CC)CCOc1ccc(C(=O)C=Cc2ccc(OCCCCCCCN(C)Cc3ccccc3)cc2)cc1 [compound 3, 3-(4-((7-(Benzyl(methyl)amino)heptyl)oxy)phenyl)-1-(4-(2-(diethylamino)ethoxy)phenyl)-prop-2-en-1-one]	28.4	0.7 ± 0.09	19.9 ± 5.5	
CCN(CC)Cc1ccc(C(=O)C=Cc2ccc(OCCCCCCCN(C)Cc3ccccc3)cc2)cc1 [compound 1, 3-(4-((7-(Benzyl(methyl)amino)heptyl)oxy)phenyl)-1-(4-((diethylamino)methyl)phenyl)prop-2-en-1-one]	3.14	2.81 ± 0.29	8.83 ± 0.58	fold increase in hAChE inhibitory activity ([1]; methylendiethylamino group in place of the methoxy group (compounds 2, 12)): 35 fold
CCN(CC)CCCCOc1ccc(C(=O)C=Cc2ccc(OCCCCCCCN(C)Cc3ccccc3)cc2)cc1 [compound 5, 3-(4-((7-(Benzyl(methyl)amino)heptyl)oxy)phenyl)-1-(4-(4-(diethylamino)butoxy)phenyl)prop-2-en-1-one]	3.5	1.06 ± 0.08	3.7 ± 0.08	
CN(CCCCCCCOc1ccc(C=CC(=O)c2ccc(OCCN3CCC(O)(c4ccc(Cl)cc4)CC3)cc2)cc1)Cc1ccccc1 [compound 11, 3-(4-((7-(Benzyl(methyl)amino)heptyl)oxy)phenyl)-1-(4-(2-(4-(4-chlorophenyl)-4-hydroxypiperidin-1-yl)ethoxy)phenyl)prop-2-en-1-one]				IC50 (µM) ± SEM hAChE ([1]; pH 8): inactive; IC50 (µM) ± SEM hBuChE ([2]; pH 8): inactive
CCN(CC)CCOc1cccc(C(=O)C=Cc2ccc(OCCCCCCCN(C)Cc3ccccc3)cc2)c1 [compound 13, 3-(4-((7-(Benzyl(methyl)amino)heptyl)oxy)phenyl)-1-(3-(2-(diethylamino)ethoxy)phenyl)-prop-2-en-1-one]	0.62	1.47 ± 0.11	0.92 ± 0.04	
CN(CCCCCCCOc1ccc(C=CC(=O)c2ccc(OCCN3CCC(c4ccccc4)CC3)cc2)cc1)Cc1ccccc1 [compound 10, 3-(4-((7-(Benzyl(methyl)amino)heptyl)oxy)phenyl)-1-(4-(2-(4-phenylpiperidin-1-yl)ethoxy)-phenyl)prop-2-en-1-one]				IC50 (µM) ± SEM hAChE [1, 7]: inactive; IC50 (µM) ± SEM hBuChE [2, 8]: inactive
